From publication PMC6201879, “N-substituted phenylbenzamides of the niclosamide chemotype attenuate obesity related changes in high fat diet fed mice” (PLoS ONE, 2018)
Values joined by “and” are separate entries in the source; they are usually repeats but may differ in a detail not shown here. Equal entries are not always repeated. Where two headings read alike, the source gives them in different places.

Columns and labels:
[1] = test system: Phosphorylated AMPK (Thr-172); assay: High-throughput phosphorylated AMPK (Thr-172) TR-FRET assay in HepG2 cells; format: cell-based, human; conditions: HepG2 TR-FRET dose response between 0.625 and 10 μM, 4 hours; also Western blot
Experimental: Phosphorylated AMPK (Thr-172) TR-FRET Assay Kit was purchased from CisBio (Bedford MA). HepG2 [HB-8065] cells were trypsinized, harvested and counted using Countess II FL automated cell counter (Thermo Fisher Scientific). Cells were then seeded in Poly-D-Lysine coated 96-well black optical plates at a concentration of 10,000 cells per well in 50μL growth medium. After 24-hours, the media was removed and replaced with 50μL of fresh growth media containing compounds. Five concentrations of each compound were prepared, ranging from 10 to 0.625 μM and applied to columns 2–11 of the cell plate. Control wells contained DMSO (column 1-minimum response control) or 500199 (column 12-maximum response control). The final DMSO concentration was 0.45%. Cells were cultured for 4 hours before cells were lysed in 50μL of lysis buffer for 30 minutes at room temperature according to assays protocol. Following lysis, 16μL of lysate was transferred to white 384 well small volume assay plate and 4μL of antibody dyes were added per assay protocol.
Following overnight incubation, quantitation was performed on a PHERAstar (BMG), using the HTRF protocol with an excitation wavelength of 337nm and emission wavelengths of 665nm and 620nm. The ratio between emission spectra (665/620) was assessed for each well individually and averaged for triplicate samples. Data are presented as mean ratio ± SE. The differences between the control (DMSO) and the compound treated wells were analyzed using two-way ANOVA and Dunnett’s post hoc test. A value of p<0.05 was considered to be significant.
Fig 5 Validation of AMPK pathway activation by phenylbenzamide derivatives in HepG2 cells. A) Cells were seeded at 10,000 cells per well 24 hours prior to treating cells with indicated concentration of compound or DMSO (CTL) for 4 hours. 16μL of cell lysate was incubated with HTRF phospho-AMPK detection reagents and fluorescence emission read at 665nm and 620nm using a PHERAstar platereader. The mean and standard deviation of the HTRF Ratio from three replicate wells is shown. The unstimulated (DMSO) and positive controls lysates are shown in green and red respectively.

[2] = Pharmacokinetic profile in Sprague Dawley rats (IV and PO); format: in vivo; conditions: Mean + SD (n = 3); for F (oral bioavailability) / bioavailability: PO 5 mg/kg vs IV 1 mg/kg; for half-life / Cmax / bioavailability: Sprague Dawley; for half-life / Cmax / bioavailability / C0 / AUC(0-inf) / AUC(0-t) / clearance / MRT inf / Tmax: rat, plasma; for bioavailability: read-out: F (oral bioavailability); for clearance: read-out: Cl_obs
Experimental: To evaluate the pharmacokinetic profile by oral (PO) and intravenous (IV) administration routes we used 6 to 8-week old Sprague Dawley rats weighing approximately 200-330g (n = 3 per study group). Compounds were administered at 1mg/kg in 5% Cremophor EL and 20% PEG400 in water for IV and 5mg/kg in PBS for PO. All dose formulation was performed at room temperature. Animals were fasted overnight prior to dosing and were re-fed approximately 4 hours after dosing. For PO, 0.2ml of blood was collected pre- and 0.5, 1, 2, 4 8 12 and 24-hours after drug delivery and transferred to EDTA-K2 BD Vacutainer plastic blood collection tubes. IV samples were collected pre-injection and 0.08, 0.25, 0.5, 1, 2, 4, 8, 12, 24-hours post injection. Blood samples were centrifuged at 2,000 g for 5 minutes at 4°C to obtain plasma. Plasma samples were stored at -75±15°C prior to analysis and then thawed and analyzed by LC-MS/MS method and pharmacokinetic calculations were performed using WinNolin (Phoenix, version 6.4). For IV administration: T1/2, C0, AUClast, AUCinf, MRT, Cl, Vss, and number of points for regression were determined. For PO administration: T1/2, Cmax, Tmax, AUCinf, AUClast, F(0-∞) %, and number of points for regression were determined. Data are reported as mean and standard deviation.

[3] = Body weight changes in HFD-fed mice; format: in vivo, mouse; conditions: 10mg/kg I.P daily for 12 days
Experimental: We next measured body weight changes in HFD-fed animals prior to treatment with niclosamide or phenylbenzamide derivatives and after 12 days, prior to sacrifice. During this time, all animals (including sham) lost some weight.
20-week old animals were treated IP with 500199 at 10 or 25mg/kg by IP over a time-course of 9 days. At day 0, 3, 6 and 9 animals were weighed and tissue samples were collected for standard histological scoring of hepatic steatosis and automated quantitative histomorphometric scoring.

[4] = test system: Escherichia coli WP2 uvrA (pKM101); assay: Ames assay, strain WP2 uvrA (pKM101); conditions: for Mean Revertant Colony Counts WP2 uvrA (pKM101) SP9+: with S9; for Mean Revertant Colony Counts WP2 uvrA (pKM101) S9-: without S9
p-AMPK Thr-172 = assay: Western blot of p-AMPK Thr-172 in liver of HFD-fed mice; conditions: HFD fed-DIO mice; 10mg/kg for 12 days; vs sham
[5] = test system: Salmonella typhimurium (TA98, TA100, TA1535 and TA1537) and Escherichia coli (WP2 uvrA (pKM101)); assay: Ames assay, overall outcome and cytotoxicity across strains
[6] = test system: fatty acid synthase (FAS); assay: Western blot of fatty acid synthase in liver of HFD-fed mice; conditions: HFD fed-DIO mice; 10mg/kg for 12 days; vs sham
[7] = test system: carbonic anhydrase-III (CAIII); assay: Western blot of carbonic anhydrase III in liver of HFD-fed mice; conditions: HFD fed-DIO mice; 10mg/kg for 12 days; vs sham
[8] = iv, 1 mg/kg, IV 1 mg/kg, read-out: T 1/2 (IV) (converted)
[9] = po, 5 mg/kg, PO 5 mg/kg in PBS, read-out: T 1/2 (PO) (converted)
[10] = IV 1 mg/kg, read-out: AUC Inf (IV)
[11] = IV 1 mg/kg, read-out: AUC last (IV)
[12] = IV 1 mg/kg, read-out: MRT Inf_obs (IV)
[13] = PO 5 mg/kg in PBS, read-out: AUC Inf (PO)
[14] = PO 5 mg/kg in PBS, read-out: AUC last (PO)
[15] = PO 5 mg/kg in PBS, read-out: MRT Inf_obs (PO)

For `CC(C)(C)c1cc(C(=O)Nc2ccc(C(=O)O)cc2Cl)c(O)c(C(C)(C)C)c1` [Compound 600453, 3-Chloro-4-[(3,5-di-tert-butyl-2-hydroxybenzene)amido]benzoic acid], the “phosphorylation of AMPK (Figs 5 and 4D)” value [1] was “stimulated phosphorylation of AMPK”, the “AUC _%Extrap_obs (IV)” value ([2]; IV 1 mg/kg) was 0.50 +/-0.114% and the AUCl ast/D (IV) ([2]; IV 1 mg/kg) was 5400 ± 683 ng·kg·h/mL/mg. For the same molecule, the “V ss_obs” value ([2]; IV 1 mg/kg) was 0.60 ± 0.076 L/kg, the “AUC _%Extrap_obs (PO)” value ([2]; PO 5 mg/kg in PBS) was 2.22 +/- 1.36% and the AUC last / D (PO) ([2]; PO 5 mg/kg in PBS) was 3390 ± 551 ng·kg·h/mL/mg. The “T 1/2 (PO)” value ([2]; PO 5 mg/kg in PBS, 5 mg/kg) was 3.91 ± 0.75 h, the “F (oral bioavailability)” value [2] was 63.91 +/- 10.5% and the half-life [2, 8] was 3.68 ± 0.13 h. It also gave a Cmax ([2]; po, 5 mg/kg, PO 5 mg/kg in PBS) of 2050 ± 558 ng/mL, a half-life [2, 9] of 3.9 h and a bioavailability ([2]; po, 5 mg/kg) of 64%. The C0 ([2]; IV 1 mg/kg) was 2816 ± 7.02 ng/mL, the AUC(0-inf) [2, 10] was 5420 ± 689 ng·h/mL and the AUC(0-t) [2, 11] was 5400 ± 683 ng·h/mL. It also gave a clearance ([2]; IV 1 mg/kg) of 3.11 ± 0.42 mL/min/kg, an MRT inf [2, 12] of 3.22 ± 0.32 h and a Tmax ([2]; PO 5 mg/kg in PBS) of 4 h. It also gave an AUC(0-inf) [2, 13] of 17300 ± 2850 ng·h/mL, an AUC(0-t) [2, 14] of 16900 ± 2750 ng·h/mL and an MRT inf [2, 15] of 7.4 ± 0.44 h. The “body weight change vs sham” value [3] was “lost significantly more weight”, the “Mean Revertant Colony Counts WP2 uvrA (pKM101) SP9+” value ([4]; 1.5 ug/Well) was 36.0 and the “Mean Revertant Colony Counts WP2 uvrA (pKM101) S9-” value ([4]; 1.5 ug/Well) was 31.7. For the same molecule, the “Mean Revertant Colony Counts WP2 uvrA (pKM101) SP9+” value ([4]; 4 ug/Well) was 35.0, the “Mean Revertant Colony Counts WP2 uvrA (pKM101) S9-” value ([4]; 4 ug/Well) was 20.7 and the “Mean Revertant Colony Counts WP2 uvrA (pKM101) SP9+” value ([4]; 10 ug/Well) was 31.7. For the same molecule, the “Mean Revertant Colony Counts WP2 uvrA (pKM101) S9-” value ([4]; 10 ug/Well) was 29.3, the “Mean Revertant Colony Counts WP2 uvrA (pKM101) SP9+” value ([4]; 25 ug/Well) was 33.3 and the “Mean Revertant Colony Counts WP2 uvrA (pKM101) S9-” value ([4]; 25 ug/Well) was 15.7. The “Mean Revertant Colony Counts WP2 uvrA (pKM101) SP9+” value ([4]; 64 ug/Well) was 28.0, the “Mean Revertant Colony Counts WP2 uvrA (pKM101) S9-” value ([4]; 64 ug/Well) was 23.0 and the “Mean Revertant Colony Counts WP2 uvrA (pKM101) SP9+” value ([4]; 160 ug/Well) was 23.0. The “Mean Revertant Colony Counts WP2 uvrA (pKM101) S9-” value ([4]; 160 ug/Well) was 20.0, the “Mean Revertant Colony Counts WP2 uvrA (pKM101) SP9+” value ([4]; 400 ug/Well) was 15.3 and the “Mean Revertant Colony Counts WP2 uvrA (pKM101) S9-” value ([4]; 400 ug/Well) was 9.0. For the same molecule, the “Mean Revertant Colony Counts WP2 uvrA (pKM101) SP9+” value ([4]; 1000 ug/Well) was 9.0, the “Mean Revertant Colony Counts WP2 uvrA (pKM101) S9-” value ([4]; 1000 ug/Well) was 3.7 and the “fold increase in the mean number of revertant colonies, WP2 uvrA (pKM101)” value ([4]; any concentration tested, vs negative control) was < 2 fold. For the same molecule, the “phosphorylation of AMPK at Thr-172 in liver” value (p-AMPK Thr-172) was “stimulated phosphorylation of AMPK at Thr-172”, the “Ames assay outcome (mutagenicity)” value [5] was “negative” and the “cytotoxicity in the Ames assay” value ([5]; relative to the negative control, presence and absence of S9 mix) was “no cytotoxicity was exhibited at any concentration”. The “FAS protein levels in liver” value [6] was “reduced” and the “CAIII protein levels in liver” value [7] was “reduced”.
In the case of `CC(C)(C)c1ccc(O)c(C(=O)Nc2cc(C(=O)O)ccc2Cl)c1` [Compound 600494, 3-{[2-Hydroxy-5-(tert-butyl)benzene]amido}-4chloro-benzoic acid], the “AUC _%Extrap_obs (IV)” value ([2]; IV 1 mg/kg) is reported as 1.23 +/- 1.05%, the AUCl ast/D (IV) ([2]; IV 1 mg/kg) is reported as 18200 ± 1190 ng·kg·h/mL/mg and the “V ss_obs” value ([2]; IV 1 mg/kg) is reported as 0.13 ± 0.035 L/kg. The “AUC _%Extrap_obs (PO)” value ([2]; PO 5 mg/kg in PBS) was 3.64 +/-4.73%, the AUC last / D (PO) ([2]; PO 5 mg/kg in PBS) was 2490 ± 542 ng·kg·h/mL/mg and the “T 1/2 (PO)” value ([2]; PO 5 mg/kg in PBS, 5 mg/kg) was 4.6 h and 4.58 ± 2.61 h. The “F (oral bioavailability)” value [2] was 14.17 +/- 3.8%, the half-life [2, 8] was 5.36 ± 2 h and the Cmax ([2]; po, 5 mg/kg, PO 5 mg/kg in PBS) was 1850 ± 674 ng/mL. For the same molecule, the half-life [2, 9] was 5.3 h, the bioavailability ([2]; po, 5 mg/kg) was 14% and the C0 ([2]; IV 1 mg/kg) was 22900 ± 4300 ng/mL. For the same molecule, the AUC(0-inf) [2, 10] was 18400 ± 1400 ng·h/mL, the AUC(0-t) [2, 11] was 18200 ± 1190 ng·h/mL and the clearance ([2]; IV 1 mg/kg) was 0.91 ± 0.068 mL/min/kg. For the same molecule, the MRT inf [2, 12] was 2.39 ± 0.69 h, the Tmax ([2]; PO 5 mg/kg in PBS) was 5.33 ± 2.31 h and the AUC(0-inf) [2, 13] was 13000 ± 3520 ng·h/mL. The AUC(0-t) [2, 14] was 12400 ± 2710 ng·h/mL and the MRT inf [2, 15] was 7.89 ± 1.49 h.
